{"source": "paper PMC7955072", "about": "(Nature Communications, 2021)", "key": {"[1]": {"tested_on": "osteoclasts (OCs)", "settings": "cited from earlier work"}, "[2]": {"tested_on": "ovarian cancer and prostate cancer growth", "settings": "cited from earlier work"}, "[3]": {"tested_on": "other AARS family members (LeuRS, ValRS)", "settings": "cited from earlier work"}, "[4]": {"settings": "cited from earlier work"}, "[5]": {"tested_on": "protein translation in rabbit reticulocyte lysate", "assay": "Rescue of RM-A-inhibited in vitro translation by C-terminal truncated human IleRS or its variants", "settings": "200 nM RM-A; 3 μM C-terminal truncated human IleRS R459A", "procedure": "(§1) After incubating at 30 °C for 1.5 h, 2.5 μL of the reaction was transferred to a 384-well plate and mixed with 25 μL of Luciferase Assay Reagent (Promega). The luminescence was read on a FlexStation 3 multimode microplate reader (Molecular Devices)."}, "[6]": {"tested_on": "protein translation in rabbit reticulocyte lysate", "assay": "Rescue of RM-A-inhibited in vitro translation by C-terminal truncated ScIleRS or its variants", "settings": "for Luciferase luminescence, 200 nM RM-A: replicates I-III", "procedure": "as §1"}, "[7]": {"tested_on": "ScIleRS Thr571 to Tyr or Arg variants", "assay": "TSA, ScIleRS with Thr571 mutated to Tyr or Arg", "type": "binding, Saccharomyces cerevisiae", "protocol": "The binding of RM-A to IleRS and the impact of intermediate analogue (Ile-AMS, MedChemExpress) or substrates on binding were evaluated by the fluorescence-based thermal shift assay (TSA). Ligand binding usually stabilizes the protein during the thermal denaturation process, and tighter binding usually causes a larger positive shift in the protein melting temperature (Tm)[45]. Briefly, mixtures with a final volume of 20 μL containing 150 mM NaCl, 100 mM HEPES (pH 7.5), 10% glycerol, 5 mM DTT, 2 μg of IleRS, 4× SYPRO orange fluorescence dye (Sigma-Aldrich) and different ligands (50 μM RM-A, 2 mM L-isoleucine, 2 mM ATP, or 50 μM Ile-AMS) were prepared in 96-well plates. The mixtures were incubated at 25 °C for 10 min and then heated from 25 °C to 95 °C at a rate of 1 °C/min. The fluorescence intensity was recorded by a StepOnePlus Real-Time PCR instrument (Life Technologies), and the maximums of the first derivatives were determined to calculate Tm values. Each Tm value was an average of triple assays."}, "[8]": {"tested_on": "Candida albicans", "design": "method as in PMID 1429226", "settings": "pH 3.0; cited from earlier work"}, "[9]": {"tested_on": "protein translation in rabbit reticulocyte lysate", "assay": "In vitro translation assay of luciferase mRNA in rabbit reticulocyte lysate", "settings": "replicates I-III", "procedure": "as §1"}}, "note": "Values joined by “and” are separate entries in the source; they are usually repeats but may differ in a detail not shown here. Equal entries are not always repeated. “Also recorded” adds a separate entry of the source.", "data": [{"smiles": "CCCC[C@@]1(OC(=O)CCC(=O)O)CC[C@]2(CC[C@H](C)[C@@H](C/C=C(C)/C=C/[C@H](O)[C@@H](C)/C=C/C(=O)O)O2)O[C@H]1/C=C/C(C)=C/C(=O)O", "note": "[RM-A, reveromycin A]", "values": [{"measurement": "apoptosis of osteoclasts (OCs)", "setting": "[1]", "result": "potently induce the apoptosis"}, {"measurement": "more cytotoxic to OCs than to other types of cells, including OC progenitor cells", "setting": "[1]", "result": "at least 100 times"}, {"measurement": "ovarian cancer and prostate cancer growth in vivo", "setting": "[2]", "result": "inhibit"}, {"measurement": "inhibition of other AARS family members (LeuRS, ValRS)", "setting": "[3]", "result": "insensitive; also recorded: does not show significant inhibition"}, {"measurement": "bone loss in ovariectomized mice", "setting": "[4]", "result": "suppress bone loss"}, {"measurement": "protein translation rescued", "setting": "[5]", "result": "about 1%"}, {"measurement": "protein translation rescued", "setting": "[6]; 200 nM RM-A, 3 μM C-terminal truncated ScIleRS variant with 600GRKMSKSLK608 replaced by -GSGS-", "result": "approximately 80%"}, {"measurement": "Luciferase luminescence, 200 nM RM-A", "setting": "[6]; 1 μM LeuRS (control)", "result": "27.35 and 44.205 and 52.747"}, {"measurement": "Luciferase luminescence, 200 nM RM-A", "setting": "[6]; 1 μM ScIleRS D527A", "result": "63.694 and 45.571 and 34.895"}, {"measurement": "Luciferase luminescence, 200 nM RM-A", "setting": "[6]; 1 μM ScIleRS F48A", "result": "235.026 and 174.094 and 121.866"}, {"measurement": "Luciferase luminescence, 200 nM RM-A", "setting": "[6]; 1 μM ScIleRS F48Y", "result": "90.991 and 72.914 and 115.108"}, {"measurement": "Luciferase luminescence, 200 nM RM-A", "setting": "[6]; 1 μM ScIleRS F191A", "result": "156.784 and 298.475 and 281.964"}, {"measurement": "Luciferase luminescence, 200 nM RM-A", "setting": "[6]; 1 μM ScIleRS P90A", "result": "35.934 and 81.508 and 9.028"}, {"measurement": "Luciferase luminescence, 200 nM RM-A", "setting": "[6]; 1 μM ScIleRS R454A", "result": "2038.19 and 7956.68 and 7915.89"}, {"measurement": "Luciferase luminescence, 200 nM RM-A", "setting": "[6]; 1 μM ScIleRS R460A", "result": "63.694 and 82.028 and 79.355"}, {"measurement": "Luciferase luminescence, 200 nM RM-A", "setting": "[6]; 1 μM ScIleRS R462A", "result": "219.125 and 149.005 and 122.71"}, {"measurement": "Luciferase luminescence, 200 nM RM-A", "setting": "[6]; 1 μM ScIleRS T572A", "result": "2721.39 and 8649.69 and 8296.21"}, {"measurement": "Luciferase luminescence, 200 nM RM-A", "setting": "[6]; 1 μM ScIleRS V89A", "result": "11067.8 and 10750 and 22533.8"}, {"measurement": "Luciferase luminescence, 200 nM RM-A", "setting": "[6]; 1 μM ScIleRS W402A", "result": "203.886 and 487.005 and 223.56"}, {"measurement": "Luciferase luminescence, 200 nM RM-A", "setting": "[6]; 1 μM ScIleRS W456A", "result": "72.793 and 72.914 and 17.634"}, {"measurement": "Luciferase luminescence, 200 nM RM-A", "setting": "[6]; 1 μM ScIleRS W529A", "result": "72.281 and 54.7 and 8.724"}, {"measurement": "Luciferase luminescence, 200 nM RM-A", "setting": "[6]; 1 μM ScIleRS Y571A", "result": "36.141 and 88.172 and 61.066"}, {"measurement": "Luciferase luminescence, 200 nM RM-A", "setting": "[6]; 1 μM ScIleRS del_KMSKS", "result": "1832.65 and 1584.88 and 8043.93"}, {"measurement": "Luciferase luminescence, 200 nM RM-A", "setting": "[6]; 3 μM C-terminal truncated ScIleRS Wild-type", "result": "109159 and 108773 and 113203"}, {"measurement": "Luciferase luminescence, 200 nM RM-A", "setting": "[6]; 3 μM LeuRS (control)", "result": 68.753}, {"measurement": "Luciferase luminescence, 200 nM RM-A", "setting": "[6]; 3 μM ScIleRS D527A", "result": "8750.65 and 7744.02 and 12892"}, {"measurement": "Luciferase luminescence, 200 nM RM-A", "setting": "[6]; 3 μM ScIleRS F48A", "result": "2036.32 and 2422.33 and 1991.71"}, {"measurement": "Luciferase luminescence, 200 nM RM-A", "setting": "[6]; 3 μM ScIleRS F48Y", "result": "94.913 and 96.194 and 77.119"}, {"measurement": "Luciferase luminescence, 200 nM RM-A", "setting": "[6]; 3 μM ScIleRS F191A", "result": "75050.4 and 67335.6 and 51978.3"}, {"measurement": "Luciferase luminescence, 200 nM RM-A", "setting": "[6]; 3 μM ScIleRS P90A", "result": "99 and 117.664 and 109.334"}, {"measurement": "Luciferase luminescence, 200 nM RM-A", "setting": "[6]; 3 μM ScIleRS R454A", "result": "116437 and 113410 and 111486"}, {"measurement": "Luciferase luminescence, 200 nM RM-A", "setting": "[6]; 3 μM ScIleRS R460A", "result": "1567.03 and 1752.95 and 2655.99"}, {"measurement": "Luciferase luminescence, 200 nM RM-A", "setting": "[6]; 3 μM ScIleRS R462A", "result": "27718.3 and 25034.8 and 41655.4"}, {"measurement": "Luciferase luminescence, 200 nM RM-A", "setting": "[6]; 3 μM ScIleRS T572A", "result": "111134 and 106950 and 105037"}, {"measurement": "Luciferase luminescence, 200 nM RM-A", "setting": "[6]; 3 μM ScIleRS V89A", "result": "100692 and 113636 and 118400"}, {"measurement": "Luciferase luminescence, 200 nM RM-A", "setting": "[6]; 3 μM ScIleRS W402A", "result": "50779.2 and 51210.1 and 59141.2"}, {"measurement": "Luciferase luminescence, 200 nM RM-A", "setting": "[6]; 3 μM ScIleRS W449A", "result": "115488 and 110666 and 106192"}, {"measurement": "Luciferase luminescence, 200 nM RM-A", "setting": "[6]; 3 μM ScIleRS W456A", "result": "51.771 and 96.194 and 77.119"}, {"measurement": "Luciferase luminescence, 200 nM RM-A", "setting": "[6]; 3 μM ScIleRS W529A", "result": "60.194 and 17.229 and 34.495"}, {"measurement": "Luciferase luminescence, 200 nM RM-A", "setting": "[6]; 3 μM ScIleRS Y571A", "result": "11774.7 and 10611.3 and 9010.55"}, {"measurement": "Luciferase luminescence, 200 nM RM-A", "setting": "[6]; 3 μM ScIleRS del_KMSKS", "result": "101448 and 100214 and 102556"}, {"measurement": "binding of RM-A to ScIleRS variant (TSA)", "setting": "[7]", "result": "blocked the binding"}, {"measurement": "MIC", "setting": "[8]", "result": 3, "unit": "µM"}, {"measurement": "Luminescence (in vitro protein translation)", "setting": "[9]; RM-A Conc 2 nM", "result": "190845 and 181490 and 183251"}, {"measurement": "Luminescence (in vitro protein translation)", "setting": "[9]; RM-A Conc 8 nM", "result": "186149 and 190937 and 185903"}, {"measurement": "Luminescence (in vitro protein translation)", "setting": "[9]; RM-A Conc 20 nM", "result": "175716 and 187102 and 188453"}, {"measurement": "Luminescence (in vitro protein translation)", "setting": "[9]; RM-A Conc 40 nM", "result": "163497 and 184611 and 167689"}, {"measurement": "Luminescence (in vitro protein translation)", "setting": "[9]; RM-A Conc 80 nM", "result": "7616.05 and 18001.9 and 7173.32"}, {"measurement": "Luminescence (in vitro protein translation)", "setting": "[9]; RM-A Conc 200 nM", "result": "0 and 17.007 and 33.997"}, {"measurement": "Luminescence (in vitro protein translation)", "setting": "[9]; RM-A Conc 800 nM", "result": "17.076 and 8.503 and 25.498"}, {"measurement": "Luminescence (in vitro protein translation)", "setting": "[9]; RM-A Conc 4000 nM", "result": "0 (2×) and 50.995"}]}]}
